Literature values in patent US12156879B2, “Combining BACE1 inhibitors with mGluR agonists for Alzheimer's disease therapy” (University of Connecticut, priority 2019, dated 2024).

Tests used:
[1] = test system: hippocampal LTP; conditions: mice treated with the BACE1 inhibitor; cited from earlier work
[2] = test system: layer V pyramidal neurons; conditions: mice treated with the BACE1 inhibitor; cited from earlier work

| Compound | hippocampal LTP [1] | spine formation in layer V pyramidal neurons [2] |
| --- | --- | --- |
| C[C@@]1(c2cc(-c3cncnc3)c(F)cc2F)CCSC(N)=N1 [LY2811376] | impaired | reduced |
| CC#Cc1cncc(-c2cc(Cl)c(C3(C)CC(=O)N(C)C(=N)N3)s2)c1 (stereo not shown) [SCH1682496] | impaired | reduced |
